Several values for one entry are separate records, joined by “and”; a condition that tells them apart may be missing. Identical values can stand only once.
Columns and labels:
VSV = format: cell-based, vesicular stomatitis virus
red blood cells = details: with type 1/type 2 quenchers, optimized conditions; cited from earlier work
red cells = experiment: Red cell hemolysis at day 42 for DMMB+light treated samples in a flow system; details: for Hemolysis (%), day 42: approximately 3.5 μM DMMB, no blocker, stored at 1-6° C.

With Cc1cc2nc3c(=O)[nH]c(=O)nc-3n(C[C@H](O)[C@H](O)[C@H](O)CO)c2cc1C [riboflavin, 7,8-dimethyl-10-ribitylisoalloxazine] the “enhancement of VSV inactivation by addition of the blocker” value (VSV) was over 4.1 log10.
In the case of phthalocyanine 4, the “cells that hemolyze after 21 days of storage” value (red blood cells) is given as “about 2%”.
In the case of Cc1cc(N(C)C)cc2[s+]c3cc(N(C)C)cc(C)c3nc12 [DMMB, 1,9-dimethylmethylene blue], the “increase in VSV inactivation with greater light fluences” value (VSV) is reported as 50%, the “Hemolysis (%), day 42” value (red cells; light fluence 226 mJ/cm^2) is reported as 2.8% and 2.84% and the “Hemolysis (%), day 42” value (red cells; light fluence 889 mJ/cm^2) is reported as 14.5% and 14.53%. The “Hemolysis (%), day 42” value (red cells; light fluence 1597 mJ/cm^2) was 12.10% and the “increase in hemolysis with greater light fluences” value (red cells; samples lacking riboflavin, 2.8 to 14.5%) was 500%.

Reference: US20010046662A1, “Method of inactivating pathogens in a red blood cell-containing composition” (priority 2000, published 2001)
